Data published in ChEMBL document CHEMBL6120940, “Discovery of N-Aryl-N'-[4-(aryloxy)cyclohexyl]squaramide-Based Inhibitors of LXR/SREBP-1c Signaling Pathway Ameliorating Steatotic Liver Disease: Navigating the Role of SIRT6 Activation” (J Med Chem, 2024).

Key:
[1] = Metabolic stability in human liver microsomes at 1 uM measured after 30 mins in presence of NADPH regeneration system by LC-MS/MS analysis; assay type: ADME, Microsome; conditions: read-out: Stability
[2] = biological target: T1, CYP1A2 (Homo sapiens, UniProt P05177); test: Inhibition of CYP1A2 in human liver microsomes at 10 uM using phenacetin as substrate preincubated for 5 mins followed by NADPH generating system addition and measured after 15 mins relative to control; assay type: ADME, Microsome; conditions: probe phenacetin, time 20 min
T1 sequence (P05177 whole entry): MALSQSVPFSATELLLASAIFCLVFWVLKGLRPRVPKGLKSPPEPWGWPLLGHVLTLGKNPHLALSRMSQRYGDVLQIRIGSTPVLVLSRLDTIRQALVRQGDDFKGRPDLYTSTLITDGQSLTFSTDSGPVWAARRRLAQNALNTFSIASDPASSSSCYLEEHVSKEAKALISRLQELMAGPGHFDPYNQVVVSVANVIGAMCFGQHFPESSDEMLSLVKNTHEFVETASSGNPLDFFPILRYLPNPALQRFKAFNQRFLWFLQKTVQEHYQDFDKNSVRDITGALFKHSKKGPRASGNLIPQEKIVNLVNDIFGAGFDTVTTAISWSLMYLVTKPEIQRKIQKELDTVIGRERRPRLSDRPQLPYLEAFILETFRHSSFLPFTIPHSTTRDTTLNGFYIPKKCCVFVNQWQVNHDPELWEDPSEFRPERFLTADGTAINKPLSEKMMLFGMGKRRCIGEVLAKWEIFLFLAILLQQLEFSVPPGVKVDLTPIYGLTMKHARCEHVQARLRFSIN

[3] = Stability in rat plasma measured after 120 mins by LC-MS/MS analysis; assay type: ADME, cell-free; conditions: read-out: Stability
[4] = biological target: CYP3A4 (Homo sapiens, UniProt P08684); test: Inhibition of CYP3A4 in human liver microsomes at 10 uM using midazolam as substrate preincubated for 5 mins followed by NADPH generating system addition and measured after 15 mins relative to control; assay type: ADME, Microsome; conditions: probe midazolam, time 20 min
Chain of CYP3A4 (P08684 whole entry): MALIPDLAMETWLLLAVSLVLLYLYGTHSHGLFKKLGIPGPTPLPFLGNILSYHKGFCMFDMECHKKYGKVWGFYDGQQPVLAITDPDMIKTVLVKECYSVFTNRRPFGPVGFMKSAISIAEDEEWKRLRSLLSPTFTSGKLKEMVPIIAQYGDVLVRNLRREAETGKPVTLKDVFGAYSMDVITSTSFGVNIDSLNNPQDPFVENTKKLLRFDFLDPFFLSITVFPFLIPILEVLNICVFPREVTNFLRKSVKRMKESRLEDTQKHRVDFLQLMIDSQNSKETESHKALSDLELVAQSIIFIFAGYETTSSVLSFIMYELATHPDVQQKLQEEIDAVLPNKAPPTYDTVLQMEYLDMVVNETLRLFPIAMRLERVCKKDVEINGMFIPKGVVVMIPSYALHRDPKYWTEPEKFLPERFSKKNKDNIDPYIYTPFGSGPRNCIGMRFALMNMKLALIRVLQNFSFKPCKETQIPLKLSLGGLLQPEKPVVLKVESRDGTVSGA

[5] = Stability in human plasma measured after 120 mins by LC-MS/MS analysis; assay type: ADME, cell-free; conditions: read-out: Stability
[6] = Stability in mouse plasma measured after 120 mins by LC-MS/MS analysis; assay type: ADME, cell-free; conditions: read-out: Stability
[7] = Metabolic stability in rat liver microsomes at 1 uM measured after 30 mins in presence of NADPH regeneration system by LC-MS/MS analysis; assay type: ADME, Microsome; conditions: read-out: Stability
[8] = biological target: T2, Sterol regulatory element-binding protein 1 (Homo sapiens) (UniProt P36956); test: Inhibition of SREBP-1c transcriptional activity in human HepG2 cells expressing LXRalpha/RXRalpha assessed as reduction in SRE-luciferase level at 10 uM pretreated with compound for 30 mins followed by T0901317 addition and measured after 12 hrs by Dual-Glo luciferase assay relative to control; assay type: cell-based; conditions: time 12.5 hrs
T2 sequence (whole entry): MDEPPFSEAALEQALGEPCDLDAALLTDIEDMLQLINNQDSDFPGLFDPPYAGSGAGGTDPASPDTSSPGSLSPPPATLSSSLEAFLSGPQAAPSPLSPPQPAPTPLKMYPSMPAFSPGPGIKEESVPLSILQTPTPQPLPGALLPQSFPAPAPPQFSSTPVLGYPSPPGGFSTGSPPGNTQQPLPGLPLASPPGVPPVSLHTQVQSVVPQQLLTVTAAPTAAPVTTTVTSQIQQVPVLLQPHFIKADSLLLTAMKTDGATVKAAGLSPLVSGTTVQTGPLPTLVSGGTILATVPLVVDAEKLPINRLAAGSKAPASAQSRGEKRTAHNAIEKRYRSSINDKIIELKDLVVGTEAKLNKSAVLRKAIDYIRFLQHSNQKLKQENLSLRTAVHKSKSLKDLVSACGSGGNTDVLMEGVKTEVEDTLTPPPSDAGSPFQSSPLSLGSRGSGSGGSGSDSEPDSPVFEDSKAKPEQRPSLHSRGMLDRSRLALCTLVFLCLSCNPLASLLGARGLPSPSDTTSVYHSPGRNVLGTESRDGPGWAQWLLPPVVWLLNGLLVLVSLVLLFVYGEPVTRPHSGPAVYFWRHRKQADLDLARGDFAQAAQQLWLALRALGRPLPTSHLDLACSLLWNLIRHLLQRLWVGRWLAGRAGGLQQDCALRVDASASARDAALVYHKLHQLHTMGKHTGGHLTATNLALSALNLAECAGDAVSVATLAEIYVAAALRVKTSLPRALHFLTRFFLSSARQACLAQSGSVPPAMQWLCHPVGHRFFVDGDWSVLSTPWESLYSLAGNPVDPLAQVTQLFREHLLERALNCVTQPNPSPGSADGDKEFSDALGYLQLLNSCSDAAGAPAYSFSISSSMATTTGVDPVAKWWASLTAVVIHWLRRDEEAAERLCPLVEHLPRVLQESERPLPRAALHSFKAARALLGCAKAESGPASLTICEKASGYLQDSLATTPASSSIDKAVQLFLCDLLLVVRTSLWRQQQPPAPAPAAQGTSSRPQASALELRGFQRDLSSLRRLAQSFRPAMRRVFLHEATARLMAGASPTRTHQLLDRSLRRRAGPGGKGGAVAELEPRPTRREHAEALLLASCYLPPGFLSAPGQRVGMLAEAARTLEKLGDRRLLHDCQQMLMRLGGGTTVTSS

[9] = biological target: CYP2D6 (Homo sapiens, UniProt P10635); test: Inhibition of CYP2D6 in human liver microsomes at 10 uM using dextromethorphan as substrate preincubated for 5 mins followed by NADPH generating system addition and measured after 15 mins relative to control; assay type: ADME, Microsome; conditions: probe dextromethorphan, time 20 min
Chain of CYP2D6 (P10635 whole entry): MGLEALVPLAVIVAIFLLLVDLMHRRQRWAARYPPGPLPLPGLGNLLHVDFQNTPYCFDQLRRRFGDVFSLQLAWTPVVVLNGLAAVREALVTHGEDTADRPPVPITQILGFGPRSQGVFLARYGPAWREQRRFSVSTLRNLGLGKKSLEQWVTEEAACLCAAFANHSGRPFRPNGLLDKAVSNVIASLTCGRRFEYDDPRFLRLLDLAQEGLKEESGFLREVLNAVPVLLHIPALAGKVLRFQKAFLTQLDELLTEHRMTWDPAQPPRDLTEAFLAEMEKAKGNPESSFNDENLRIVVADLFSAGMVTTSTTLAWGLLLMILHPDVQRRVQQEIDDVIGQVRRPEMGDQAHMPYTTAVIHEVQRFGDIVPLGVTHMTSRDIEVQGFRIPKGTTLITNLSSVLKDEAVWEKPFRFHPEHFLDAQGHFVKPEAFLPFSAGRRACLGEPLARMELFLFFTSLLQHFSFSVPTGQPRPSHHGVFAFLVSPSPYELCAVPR

[10] = Metabolic stability in mouse liver microsomes at 1 uM measured after 30 mins in presence of NADPH regeneration system by LC-MS/MS analysis; assay type: ADME, Microsome; conditions: read-out: Stability
[11] = biological target: Voltage-gated inwardly rectifying potassium channel KCNH2 (Homo sapiens, UniProt Q12809); test: Inhibition of human ERG expressing HEK cells by whole-cell patch clamp assay; assay type: toxicity, cell-based
Chain of Voltage-gated inwardly rectifying potassium channel KCNH2 (Q12809 whole entry): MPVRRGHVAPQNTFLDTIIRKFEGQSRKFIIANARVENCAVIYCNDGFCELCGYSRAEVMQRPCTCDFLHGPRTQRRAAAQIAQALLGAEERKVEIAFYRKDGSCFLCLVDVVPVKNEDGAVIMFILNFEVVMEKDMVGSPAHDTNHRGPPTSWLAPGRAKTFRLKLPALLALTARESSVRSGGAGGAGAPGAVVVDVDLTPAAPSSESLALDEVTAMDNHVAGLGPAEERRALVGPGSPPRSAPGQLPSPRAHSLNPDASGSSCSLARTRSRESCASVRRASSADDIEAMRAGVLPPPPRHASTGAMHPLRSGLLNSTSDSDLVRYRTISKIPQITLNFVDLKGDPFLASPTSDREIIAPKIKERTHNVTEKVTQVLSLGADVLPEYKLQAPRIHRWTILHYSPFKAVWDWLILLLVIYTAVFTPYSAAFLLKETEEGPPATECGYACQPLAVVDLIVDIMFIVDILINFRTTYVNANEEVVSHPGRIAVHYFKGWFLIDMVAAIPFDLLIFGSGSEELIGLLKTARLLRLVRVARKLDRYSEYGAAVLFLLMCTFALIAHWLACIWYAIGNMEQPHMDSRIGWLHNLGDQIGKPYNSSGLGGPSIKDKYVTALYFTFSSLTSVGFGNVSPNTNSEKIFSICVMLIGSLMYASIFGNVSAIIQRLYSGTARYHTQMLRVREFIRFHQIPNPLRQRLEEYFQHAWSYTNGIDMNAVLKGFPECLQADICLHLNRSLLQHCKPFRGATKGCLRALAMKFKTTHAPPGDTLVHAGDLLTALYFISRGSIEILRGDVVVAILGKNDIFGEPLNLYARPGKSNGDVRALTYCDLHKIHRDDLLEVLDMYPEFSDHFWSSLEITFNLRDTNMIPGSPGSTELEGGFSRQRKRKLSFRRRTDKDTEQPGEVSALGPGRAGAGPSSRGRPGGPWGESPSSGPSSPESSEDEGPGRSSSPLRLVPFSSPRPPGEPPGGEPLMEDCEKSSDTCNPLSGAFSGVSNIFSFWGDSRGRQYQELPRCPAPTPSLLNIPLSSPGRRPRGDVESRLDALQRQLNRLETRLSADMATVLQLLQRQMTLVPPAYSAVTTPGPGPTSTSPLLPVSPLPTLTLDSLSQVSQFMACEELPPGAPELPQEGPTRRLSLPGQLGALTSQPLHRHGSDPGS

[12] = biological target: CYP2C9 (Homo sapiens, UniProt P11712); test: Inhibition of CYP2C9 in human liver microsomes at 10 uM using diclofenac as substrate preincubated for 5 mins followed by NADPH generating system addition and measured after 15 mins relative to control; assay type: ADME, Microsome; conditions: probe diclofenac, time 20 min
Chain of CYP2C9 (P11712 whole entry): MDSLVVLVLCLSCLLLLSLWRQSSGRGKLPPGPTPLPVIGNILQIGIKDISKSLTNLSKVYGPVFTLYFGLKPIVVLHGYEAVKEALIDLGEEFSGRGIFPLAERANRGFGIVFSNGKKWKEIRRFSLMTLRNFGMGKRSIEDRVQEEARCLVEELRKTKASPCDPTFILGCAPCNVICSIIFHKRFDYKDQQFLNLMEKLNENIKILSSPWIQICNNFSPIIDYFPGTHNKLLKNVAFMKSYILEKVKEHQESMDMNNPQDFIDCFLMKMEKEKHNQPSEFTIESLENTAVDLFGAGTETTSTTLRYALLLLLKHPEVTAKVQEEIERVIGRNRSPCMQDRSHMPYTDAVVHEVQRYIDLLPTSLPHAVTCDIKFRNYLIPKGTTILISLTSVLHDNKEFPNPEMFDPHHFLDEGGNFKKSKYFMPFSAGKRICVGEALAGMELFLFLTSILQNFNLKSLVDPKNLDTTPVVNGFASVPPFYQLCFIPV

[13] = biological target: CYP2C19 (Homo sapiens, UniProt P33261); test: Inhibition of CYP2C19 in human liver microsomes at 10 uM using S-mephenytoin as substrate preincubated for 5 mins followed by NADPH generating system addition and measured after 15 mins relative to control; assay type: ADME, Microsome; conditions: probe S-mephenytoin, time 20 min
Chain of CYP2C19 (P33261 whole entry): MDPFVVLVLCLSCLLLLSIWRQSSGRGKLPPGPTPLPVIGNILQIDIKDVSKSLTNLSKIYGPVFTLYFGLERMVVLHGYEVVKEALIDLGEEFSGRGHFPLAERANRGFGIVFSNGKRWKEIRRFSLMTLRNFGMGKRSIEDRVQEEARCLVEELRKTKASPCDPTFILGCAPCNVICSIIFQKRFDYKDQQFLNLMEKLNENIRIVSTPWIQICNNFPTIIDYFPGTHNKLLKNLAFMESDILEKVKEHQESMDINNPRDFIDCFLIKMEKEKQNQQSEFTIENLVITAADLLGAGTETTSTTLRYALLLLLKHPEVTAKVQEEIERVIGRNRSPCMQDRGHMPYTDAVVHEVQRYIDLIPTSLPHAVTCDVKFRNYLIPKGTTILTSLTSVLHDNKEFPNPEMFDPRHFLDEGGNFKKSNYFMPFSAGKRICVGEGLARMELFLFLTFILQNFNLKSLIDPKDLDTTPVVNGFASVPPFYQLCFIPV

[14] = Downregulation of SREBP-1c mRNA expression in human HepG2 cells at 10 uM pretreated with compound for 30 mins followed by T0901317 addition and measured after 12 hrs by RT-qPCR analysis relative to control; assay type: functional; conditions: time 12.5 hrs

With `COc1ccccc1Nc1c(N[C@H]2CC[C@H](Oc3ccc(C#N)cc3)CC2)c(=O)c1=O` the remaining at 0.5 h, 1 µM [1] was 15.5%, the inhibition at 0.25 h, 10 µM [2] was > 100% and the remaining at 2 h [3] was 93.1%. For the same compound, the inhibition at 0.25 h, 10 µM [4] was 84%, the remaining at 2 h [5] was 96.3% and the remaining at 2 h [6] was > 100%. For the same compound, the remaining at 0.5 h, 1 µM [7] was 26.5%, the inhibition [8] was 32.6% and the inhibition at 0.25 h, 10 µM [9] was 86.2%. For the same compound, the remaining at 0.5 h, 1 µM [10] was 31%, the IC50 [11] was 493 nM and the inhibition at 0.25 h, 10 µM [12] was 56.9%. The inhibition at 0.25 h, 10 µM [13] was 38.9% and the Activity [14] was 7.4%.
